Laboratory results from US10085955B2, “Methods and compositions for treatment of demyelinating diseases” (Pathologica LLC, priority 2013, dated 2018).

Tests used:
[1] = test system: MOG-induced experimental autoimmune encephalomyelitis (EAE); test: First MOG EAE protocol (murine multiple sclerosis model); assay type: in vivo, C57BL/6 mice; details: first 28-day study; MGBG 30 mpk BID, fingolimod 3 mpk QD; throughout/duration of experiment
Excerpt: An experimental murine model of multiple sclerosis employing a myelin oligodendrocyte glycoprotein (MOG) peptide to induce experimental autoimmune encephalomyelitis (EAE) was employed to determine the efficacy of MGBG in preventing and treating that disease. Because of its many similarities to MS, EAE is commonly used to study pathogenesis of autoimmunity, CNS inflammation, demyelination, cell trafficking, and tolerance induction. EAE is characterized by paralysis (in some models the paralysis is remitting-relapsing), CNS inflammation and demyelination. EAE is mediated primarily by dendritic cells, myelin-specific T cells (e.g. Th1 and Th17), and M1 macrophages. B cells may also play a role in some models of EAE. Body weight also tracks disease progression. EAE is induced in C57BL/6 mice by immunization with MOG35-55 or MOG1-125 in CFA emulsion followed by administration of pertussis toxin (PTX) in PBS. The emulsion provides antigen which initiates expansion and differentiation of MOG-specific autoimmune T cells. PTX enhances EAE development by providing additional adjuvant and facilitating entrance of autoimmune T cells into the CNS.
Chronic EAE develops in C57BL/6 mice after immunization with an emulsion of MOG35-55/CFA or MOG1-125/CFA followed by injection of pertussis toxin. This model is used to test the potential of compounds to prevent or mitigate EAE disease. It can be run with the compound dosed from the time of immunization (prophylactic treatment), or with the aim of reversing the course of disease and facilitating recovery by dosing the compound from the time of EAE onset (therapeutic treatment). The model uses female C57BL/6 mice of age 10 to 14 weeks at the start of the study. Typically, EAE develops 8-18 days after immunization. EAE development is usually followed for 4 weeks (28 days) after immunization.
In prophylactic studies, treatment begins before disease onset, at the time of immunization and group assignment. Mice are assigned to treatment groups in a balanced manner to achieve groups with similar distributions of body weights. Prophylactic studies assess if treatment will affect the course of disease both before and after the first clinical signs of EAE. To compensate for the stress of treatment in prophylactic treatment studies and achieve the target disease severity, EAE may be induced with a higher dose of pertussis toxin than used in therapeutic studies. The dose of pertussis toxin is based on expected stress due to dosing (route, frequency, and formulation of vehicle).
Clinically, EAE progression is scored on a scale of 0 to 5, wherein each score represents the following clinical observations:
Inflammatory foci of approximately 20 cells were counted in each H&E stained section. When inflammatory infiltrates consisted of more than 20 cells, an estimate was made of how many foci of 20 cells were present.
The demyelination score represents an estimate of demyelinated area for each section as follows:
Unless otherwise noted, statistical analysis was performed as follows: disease incidence compared using chi-square test; mean day of EAE onset, change in body weight, and number of apoptotic cells compared using 2-tailed Student's t-test; median day of EAE onset compared using Wilcoxon's survival test; mean maximum score (MMS), end score, and demyelination scores (LFB and H&E) compared using Wilcoxon's non-parametric test.
Ten week old female C57BL/6 mice weighing 18-23 g (Taconic Farms) were divided into four groups: mock immunized (n=3) and three MOG-immunized groups receiving MGBG at 30 mpk BID (as the di-HCl monohydrate with a correction factor of 1.49), fingolimod (FTY720) at 3 mpk QD with a second mock vehicle dose, or 0.9% saline vehicle BID (n=12 each). […]

[2] = test system: PGE2 production in carrageenan air pouch; test: Carrageenan air pouch model; assay type: in vivo, Lewis rats; details: rat pouch fluid, 3 or 24 hours post-carrageenan; naproxen 10 mg/kg, dexamethasone 1 mg/kg
Excerpt: Injection of air subcutaneously will induce the formation of a connective tissue cavity lined with cells that resemble and function like a synovial lining. This method is commonly known as the Air Pouch Model and is a useful animal model of inflammation that can be generated in a relatively short period of time. The air pouch may be created by subcutaneous (SQ) injection of a volume of sterile air in the dorsal neck region. The model may be used to test the efficacy and potency of compounds such as polyamine analogues and polyamine biosynthesis inhibitors such as MGBG in reducing various cellular and biochemical indicators of inflammation when administered as an oral (PO) gavage administration. Healthy Male Lewis rats (Charles River Laboratories, Wilmington, Mass.) weighing between 175-200 g were used. […] A correction factor of 1.49 was used to account for the dihydrochloride salt/monohydrate form of MGBG. […] Air pouches were formed on the dorsum of the rats during the last 4 days of MGBG or vehicle administration prior to carrageenan injection. Briefly, rats were anesthetized with isoflurane, during which dorsal hair was removed and 20 mL of sterile air was injected subcutaneously into the intrascapular region. Pouches were allowed to develop for the next 4 days, with re-inflation (to maintain pouch volume) of pouches 1 day prior to carrageenan injection. One hour prior to carrageenan injection, animals were given their last dose of drug (MGBG, vehicle, naproxen, or dexamethasone). A 1% suspension of carrageenan (2 mL; FMC BioPolyer, Philadelphia, Pa.) suspended in saline was injected into the pouch cavity. At either 3 hours or 24 hours post-carrageenan injection, rats were euthanized by CO2 asphyxiation and 2.5 mL of PBS (Sigma Chemical, St. Louis, Mo.) was injected directly into the pouch. The pouch was opened with surgical scissors and the pouch fluid was collected using a transfer pipette. One aliquot was collected for measurement of total cell count with differential, and the other aliquot for PGE2 determination. […]

Row | SMILES | mean clinical score (scale 0 to 5) [1] | production of PGE2 (inflammatory and basal levels) [2]
1 | CCCCCCCCc1ccc(CCC(N)(CO)CO)cc1 [fingolimod] | 0 | 
2 | COc1ccc2cc([C@H](C)C(=O)O)ccc2c1 [naproxen] |  | inhibited production of both inflammatory and basal levels
